The target in this test is human Nav1.8 (Homo sapiens (Human), UniProt Q9Y5Y9). Description: Nav1.8 Qube automated patch-clamp assay. The test is classed as cell-based. As to conditions: human Nav1.8 stably expressed in HEK 293 cells, whole-cell voltage clamp, room temperature; read-out: IC50 (nM) in the Nav 1.8 Qube Assay. The protocol: Qube® Assay Experimental Procedure Compounds were tested on human Nav1.8 and Nav1.5 channels stably expressed in human embryo kidney (HEK) 293 cells. Sodium current measurements on Qube® were conducted as follows: automated 384-well patch-clamp assays on the Qube® platform (Sophion Biosciences) were used to measure the inhibition of sodium flow through human Nav1.8 and Nav1.5 channels. Whole-cell voltage-clamp recordings were performed in QChips® (Sophion Biosciences) at room temperature. Nav1.8 current measurements on Qube® were obtained as follows: Nav1.8 currents were elicited with a 10 second 1 Hertz (Hz) pulse train from a holding potential of −90 millivolts (mV), delivered to the cells once per minute in the control condition (DMSO only) and after compound addition. The 1 hertz pulse train stimulation consisted often test pulses to 10 millivolt (mV) for 20 milliseconds (ms), each of which was followed by a 980 millisecond repolarization to −67 millivolts. At the end of the 10 second pulse train stimulation, a 5 second hyperpolarization step to −100 millivolt (mV) was used to recover Nav1.8 from fast inactivation. The peak currents elicited by the 1st and 10th test pulses were used to determine IC50 values for resting inhibition and inactivated state inhibition. Nav1.5 current measurements on Qube® were obtained as follows: Nav1.5 currents were elicited with a 20 second 3 Hertz pulse train in the control condition (DMSO only) and after compound addition. The pulse train consisted of sixty 20 millisecond test pulses to 0 millivolt from a holding potential of −80 millivolt (mV). The average peak currents elicited by the last 3 test pulses were used to determine IC50 values for Nav1.5 inhibition.
Chain of human Nav1.8 (Q9Y5Y9 whole entry): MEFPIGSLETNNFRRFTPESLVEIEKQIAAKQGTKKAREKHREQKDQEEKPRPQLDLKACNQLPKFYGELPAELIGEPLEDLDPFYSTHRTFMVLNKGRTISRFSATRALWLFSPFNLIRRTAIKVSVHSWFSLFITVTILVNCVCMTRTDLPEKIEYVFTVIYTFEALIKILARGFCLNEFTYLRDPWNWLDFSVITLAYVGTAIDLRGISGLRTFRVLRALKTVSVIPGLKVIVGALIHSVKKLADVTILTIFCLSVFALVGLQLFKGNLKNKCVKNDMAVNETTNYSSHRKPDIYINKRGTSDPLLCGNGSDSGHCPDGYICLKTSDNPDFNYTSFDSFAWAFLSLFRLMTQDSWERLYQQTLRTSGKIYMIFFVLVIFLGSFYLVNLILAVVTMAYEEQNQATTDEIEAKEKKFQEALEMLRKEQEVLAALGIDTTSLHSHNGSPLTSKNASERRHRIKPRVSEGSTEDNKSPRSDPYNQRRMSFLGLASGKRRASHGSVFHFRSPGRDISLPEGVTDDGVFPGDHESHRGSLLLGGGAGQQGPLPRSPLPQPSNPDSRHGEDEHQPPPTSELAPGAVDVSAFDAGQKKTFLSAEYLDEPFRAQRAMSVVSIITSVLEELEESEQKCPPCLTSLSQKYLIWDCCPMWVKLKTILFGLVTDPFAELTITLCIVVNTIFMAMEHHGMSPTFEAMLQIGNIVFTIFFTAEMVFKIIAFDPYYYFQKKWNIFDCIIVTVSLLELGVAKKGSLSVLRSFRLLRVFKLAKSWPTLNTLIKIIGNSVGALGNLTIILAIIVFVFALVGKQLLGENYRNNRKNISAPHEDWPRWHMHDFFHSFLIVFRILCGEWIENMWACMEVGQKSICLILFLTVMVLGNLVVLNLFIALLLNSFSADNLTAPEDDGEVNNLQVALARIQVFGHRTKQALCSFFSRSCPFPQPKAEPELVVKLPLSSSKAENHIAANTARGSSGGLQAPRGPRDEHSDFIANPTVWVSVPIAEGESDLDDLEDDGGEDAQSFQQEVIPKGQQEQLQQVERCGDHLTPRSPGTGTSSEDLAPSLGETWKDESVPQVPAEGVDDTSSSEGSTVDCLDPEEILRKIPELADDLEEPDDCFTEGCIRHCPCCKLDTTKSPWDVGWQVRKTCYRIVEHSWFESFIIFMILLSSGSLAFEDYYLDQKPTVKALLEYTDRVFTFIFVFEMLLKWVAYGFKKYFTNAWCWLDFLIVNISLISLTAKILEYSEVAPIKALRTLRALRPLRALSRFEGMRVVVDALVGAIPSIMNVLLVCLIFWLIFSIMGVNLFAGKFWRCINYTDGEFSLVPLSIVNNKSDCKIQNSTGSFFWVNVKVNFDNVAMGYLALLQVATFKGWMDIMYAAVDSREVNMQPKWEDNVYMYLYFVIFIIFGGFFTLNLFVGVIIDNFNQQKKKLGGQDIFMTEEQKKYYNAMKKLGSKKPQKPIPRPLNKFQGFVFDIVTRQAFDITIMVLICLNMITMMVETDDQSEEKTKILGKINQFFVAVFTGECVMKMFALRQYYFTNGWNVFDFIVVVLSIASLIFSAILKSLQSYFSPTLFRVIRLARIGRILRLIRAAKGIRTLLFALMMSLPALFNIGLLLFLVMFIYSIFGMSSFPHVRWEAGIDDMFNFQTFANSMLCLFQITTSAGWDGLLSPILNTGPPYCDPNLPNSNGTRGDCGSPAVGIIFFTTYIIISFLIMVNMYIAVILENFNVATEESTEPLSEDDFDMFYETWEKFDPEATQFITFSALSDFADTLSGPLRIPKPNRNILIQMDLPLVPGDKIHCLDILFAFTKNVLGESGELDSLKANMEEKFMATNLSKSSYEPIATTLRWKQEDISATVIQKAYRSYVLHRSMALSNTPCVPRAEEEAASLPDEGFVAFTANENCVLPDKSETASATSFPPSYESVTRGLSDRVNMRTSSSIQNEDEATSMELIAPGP
The following buffers were used for the Qube® recordings: External buffer for Nav1.8 Qube® recording: 150 NaCl, 2 CaCl2, 5 KCl, 1 Mg Cl2, 10 HEPES, 12 Dextrose; External buffer for Qube® Nav1.5 recording: 120 N-Methyl-D-Glucamine, 40 NaCl, 1 KCl, 2.7 CaCl2), 5 HEPES, 0.5 MgCl2; and Internal buffer for Qube® recording: 120 CsF, 30 CsCl, 10 EGTA, 5 HEPES, 5 NaF, 2 MgCl2.
For all Qube® experiments offline analysis was used to determine percent inhibition as a function of drug concentration. IC50 values were determined by fitting to the Hill equation.
Usually IC50 stands for the concentration that gives 50% inhibition. Regarding `C[C@H]1CN(c2nc(C3CCC3)ccc2C(=O)Nc2ccnc(S(N)(=O)=O)c2)C[C@H](C(F)(F)F)O1` (single isomer, unassigned) [Example 168, 6-cyclobutyl-2-((2S,6R or 2R,6S)-2-methyl-6-(trifluoromethyl)morpholino)-N-(2-sulfamoylpyridin-4-yl)nicotinamide], the IC50 came out at 17 nM. With `CC[C@@H]1CN(c2ncc(C(F)(F)F)cc2C(=O)Nc2ccnc(S(N)(=O)=O)c2)C[C@@H](C(F)(F)F)O1` (single isomer, unassigned) [Example 133, 2-((2R,6S or 2S,6R)-2-ethyl-6-(trifluoromethyl)morpholino)-N-(2-sulfamoylpyridin-4-yl)-5-(trifluoromethyl)nicotinamide] the figure was 12 nM. In the case of `NS(=O)(=O)c1cc(NC(=O)c2ccc(Cl)nc2N2CCCC(F)(F)CC2)ccn1` [Example 138, 6-chloro-2-(4,4-difluoroazepan-1-yl)-N-(2-sulfamoyl-4-pyridyl)pyridine-3-carboxamide], the concentration for half-maximal inhibition (IC50) was 5.8 nM. In the case of `NS(=O)(=O)c1cc(NC(=O)c2ccc(C(F)(F)F)nc2N2CCCC(F)(F)CC2)ccn1` [Example 132, 2-(4,4-difluoroazepan-1-yl)-N-(2-sulfamoylpyridin-4-yl)-6-(trifluoromethyl)nicotinamide], the IC50 turned out to be 5.3 nM. The same measure for `NS(=O)(=O)c1cc(NC(=O)c2cc(C(F)(F)F)cnc2N2CCCC(F)(F)CC2)ccn1` [Example 13, 2-(4,4-difluoroazepan-1-yl)-N-(2-sulfamoylpyridin-4-yl)-5-(trifluoromethyl)nicotinamide]: 4.1 nM.

Source of the values: patent US11377438B2, “2-amino-n-heteroaryl-nicotinamides as Nav1.8 inhibitors” (Merck Sharp & Dohme Corp., priority 2018, dated 2022).
